# The supplement of paper PMC4862054
# Where “and” joins values, the source holds several entries; their conditions need not be identical. Equal entries are not always repeated.
# Key:
# DU-4475 [1] = experiment: normalised response (% of control), CellTiter-Glo; higher = more viable cells (100 = DMSO, 0 = benzethonium chloride kill control); conditions: incubation time: 72 h
# Method: (§1)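 DSRT, 72 h incubation, CellTox Green / CellTiter-Glo readout. Signal is normalised to DMSO and benzethonium chloride controls. Value is the normalised response at the highest dose.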
# MDA-MB-231 = experiment: as above; conditions: incubation time: 72 h
# Method: as §1
# BT-474 = experiment: as above; conditions: incubation time: 72 h
# Method: as §1
# CAL-148 [2] = experiment: as above; conditions: incubation time: 72 h
# Method: as §1
# CAL-85-1 [3] = experiment: as above; conditions: incubation time: 72 h
# Method: as §1
# BT-549 = experiment: as above; conditions: incubation time: 72 h
# Method: as §1
# CAL-120 [4] = experiment: as above; conditions: incubation time: 72 h
# Method: as §1
# HDQ-P1 [5] = experiment: as above; conditions: incubation time: 72 h
# Method: as §1
# HCC1143 = experiment: as above; conditions: incubation time: 72 h
# Method: as §1
# SK-BR-3 = experiment: as above; conditions: incubation time: 72 h
# Method: as §1
# MCF-10A = experiment: as above; conditions: incubation time: 72 h
# Method: as §1
# HCC1937 = experiment: as above; conditions: incubation time: 72 h
# Method: as §1
# DU-4475 [6] = experiment: normalised viability (% of control), CellTiter-Blue; higher = more viable cells (about 100 = DMSO control); conditions: incubation time: 72 h
# Method: (§2)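 DSRT, CellTiter-Blue viability, 72 h incubation. Signal is normalised to DMSO and benzethonium chloride controls. Value is the normalised response at dose 9.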
# MDA-MB-453 [7] = experiment: as above; conditions: incubation time: 72 h
# Method: as §2
# CAL-148 [8] = experiment: as above; conditions: incubation time: 72 h
# Method: as §2
# CAL-85-1 [9] = experiment: as above; conditions: incubation time: 72 h
# Method: as §2
# CAL-51 [10] = experiment: as above; conditions: incubation time: 72 h
# Method: as §2
# HDQ-P1 [11] = experiment: as above; conditions: incubation time: 72 h
# Method: as §2
# CAL-51 [12] = conditions: 72 h
# How it was run: (§3)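 Breast cancer cell lines in 20 µl suspension were added to 384-well plates already holding compound at 5 concentrations, spaced in 10-fold steps across a compound-specific 10,000-fold range, and incubated for 72 h. CellTox Green fluorescence (485/520 nm) was read first to measure cell death, followed by CellTiter-Glo luminescence for viability after 10 min at room temperature. Each plate was normalised to 0.1 % DMSO and a positive kill control. EC50 values came from dose-response curve fits and were censored at the top concentration.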
# CAL-120 [13] = conditions: 72 h
# How it was run: as §3
# MDA-MB-453 [14] = conditions: 72 h
# How it was run: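 After 72 h on 384-well plates pre-loaded with compound in 5 µl medium, breast cancer cell lines seeded in 20 µl were assayed for viability with 2.5 µl CellTiter-Blue at 37 °C for 2 h, read at 560/590 nm. Each plate was quality-checked by Z'-factor and normalised to vehicle and a positive kill control. EC50 comes from the fitted percent-inhibition dose-response curve, censored at the top concentration, and rows scoring zero for drug sensitivity were left out.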
Compound,normalised response (DU-4475 [1]),normalised response (MDA-MB-231),normalised response (BT-474),normalised response (CAL-148 [2]),normalised response (CAL-85-1 [3]),normalised response (BT-549),normalised response (CAL-120 [4]),normalised response (HDQ-P1 [5]),normalised response (HCC1143),normalised response (SK-BR-3),normalised response (MCF-10A),normalised response (HCC1937),normalised viability (DU-4475 [6]),normalised viability (MDA-MB-453 [7]),normalised viability (CAL-148 [8]),normalised viability (CAL-85-1 [9]),normalised viability (CAL-51 [10]),normalised viability (HDQ-P1 [11]),"EC50, CellTiter-Glo (CAL-51 [12])","EC50, CellTiter-Glo (CAL-120 [13])","EC50, CellTiter-Blue viability (MDA-MB-453 [14])"
COc1ccc(-c2cc3c(C)nc(N)nc3n([C@H]3CC[C@H](OCCO)CC3)c2=O)cn1 (10000 nM),0.26%,9.59%,23.9%,4.36%,4.45%,8.65%,26.1%,10.8%,7.29%,18.6%,7.97%,8.02%,0.68%,2.5%,1.46%,5.23%,2.53%,5.55%,,,
O=C(Nc1c[nH]nc1-c1nc2ccc(CN3CCOCC3)cc2[nH]1)NC1CC1 [AT9283] (1000 nM),72.4%,42.4%,58.6%,86.1%,59.6%,27.8%,46.9%,50.8%,60.8%,70.8%,46.2%,73.7%,,,,,,,,,
COc1cc(CCc2cc(NC(=O)c3ccc(N4CC(C)NC(C)C4)cc3)n[nH]2)cc(OC)c1 (stereo unspecified) [AZD4547] (1000 nM),94%,103%,99.6%,93%,105%,88.7%,68.2%,93.7%,96.5%,89.6%,74.9%,95.8%,0.72%,8.97%,11.9%,2.48%,3.02%,123%,,,
CCC/C=C/C=C/C(=O)O[C@H]1/C(=C/C(=O)OC)C[C@H]2C[C@H]([C@@H](C)O)OC(=O)C[C@H](O)C[C@@H]3C[C@H](OC(C)=O)C(C)(C)[C@](O)(C[C@@H]4C/C(=C/C(=O)OC)C[C@H](/C=C/C(C)(C)[C@]1(O)O2)O4)O3 [Bryostatin 1] (100 nM),97.4%,93.1%,81.2%,107%,98.5%,87.9%,104%,81.5%,94.1%,73.6%,95.7%,98.6%,77.3%,102%,67.6%,99.2%,109%,104%,,,
CO[C@@H](C(=O)N1Cc2[nH]nc(NC(=O)c3ccc(N4CCN(C)CC4)cc3)c2C1)c1ccccc1 [Danusertib] (10000 nM),37.3%,42.7%,55.5%,94.9%,67.8%,14.7%,22.1%,44.2%,47.1%,85.6%,17%,85.3%,13.9%,31.3%,69.4%,32.1%,17.7%,10.4%,,,
Cc1nc(Nc2ncc(C(=O)Nc3c(C)cccc3Cl)s2)cc(N2CCN(CCO)CC2)n1 [Dasatinib] (1000 nM),95.5%,34.1%,45.7%,103%,35.8%,55.3%,48.6%,27.1%,60.3%,97.1%,24.3%,55.2%,100% and 110%,84.2% and 84.5%,112% and 97.6%,37.7% and 37.6%,36.7% and 40.3%,11.7% and 10.7%,,,
Cc1c(CN2CCN(C(=O)[C@H](C)O)CC2)sc2c(N3CCOCC3)nc(-c3cnc(N)nc3)nc12 [GDC-0980] (10000 nM),15.7%,34.3%,47.6%,10%,18.2%,19%,23.2%,10.6%,20.7%,19.2%,17.8%,29.5%,9.81%,3.22%,3.74%,15.2%,3.17%,10.9%,,,
Cc1cccc(-c2nn3c(c2-c2ccnc4ccc(C(N)=O)cc24)CCC3)n1 [Galunisertib],,,,,,,,,,,,,,,,,,,> 1 µM,,
Nc1cccc2c1CN(C1CCC(=O)NC1=O)C2=O (stereo unspecified) [Lenalidomide],,,,,,,,,,,,,,,,,,,,> 10 µM,
Nc1cccc2c1CN(C1CCC(=O)NC1=O)C2=O (stereo unspecified) [Lenalidomide] (10000 nM),99.3%,103%,94%,104%,103%,98%,93.6%,93.6%,95.3%,98.5%,102%,102%,95% and 80.6%,94.2% and 92.1%,86.1% and 106%,81.6% and 86.1%,97.1% and 99.6%,106% and 110%,,,
C[C@]12O[C@H](C[C@]1(O)CO)n1c3ccccc3c3c4c(c5c6ccccc6n2c5c31)CNC4=O [Lestaurtinib] (1000 nM),5.65%,54.5%,56.8%,99.6%,32.5%,30.3%,49.5%,61.6%,71.9%,29.1%,28.5%,56%,2.87%,28.9%,90.9%,39.7%,55%,77.9%,,,
O=C1c2c(O)ccc(O)c2C(=O)c2c(NCCNCCO)ccc(NCCNCCO)c21 [Mitoxantrone] (1000 nM),49.5%,82.9%,79.3%,40.4%,73.9%,73.6%,91.2%,85%,73.9%,56.2%,74.2%,87.4%,0.48%,31%,7.8%,34%,16.9%,48.9%,,,
Nc1ccccc1NC(=O)c1ccc(CNc2nccc(-c3cccnc3)n2)cc1 [Mocetinostat] (10000 nM),4.3%,21.7%,16.9%,12.2%,6.94%,27.1%,32%,38.2%,24.9%,1.68%,54.1%,49.8%,2.37%,11.9%,10%,21%,19.3%,48.4%,,,
COc1nc(N)nc2c1ncn2[C@@H]1O[C@H](CO)[C@@H](O)[C@@H]1O [Nelarabine] (10000 nM),97.8%,94.3%,87%,78.7%,103%,95.8%,98.6%,91.6%,94.9%,76.6%,86.2%,91.7%,109% and 104%,84.5% and 97.5%,106% and 96.7%,100% and 103%,99.6% and 98.4%,69.1% and 69%,,,
Cc1ccc(Nc2nccc(N(C)c3ccc4c(C)n(C)nc4c3)n2)cc1S(N)(=O)=O [Pazopanib] (10000 nM),104%,102%,91.4%,106%,103%,48.1%,89.4%,98.1%,97.2%,105%,102%,102%,86.8%,62.2%,79.5%,100%,83.9%,80.7%,,,
O=C(CCBr)N1CCN(C(=O)CCBr)CC1 [Pipobroman],,,,,,,,,,,,,,,,,,,,,6.14 µM
O=C(CCBr)N1CCN(C(=O)CCBr)CC1 [Pipobroman] (10000 nM),101%,101%,94.7%,101%,98.2%,101%,95.8%,107%,103%,108%,104%,98.2%,112%,7.05%,84.8%,85.6%,108%,109%,,,
C[C@]12C=CC(=O)C=C1CC[C@@H]1[C@@H]2[C@@H](O)C[C@@]2(C)[C@H]1CC[C@]2(O)C(=O)CO [Prednisolone] (10000 nM),104%,151%,144%,111%,118%,99%,76.9%,84.7%,112%,96.7%,96.4%,101%,102%,79.8%,99.2%,109%,103%,120%,,,
CNC(=O)c1cc(Oc2ccc(NC(=O)Nc3ccc(Cl)c(C(F)(F)F)c3)cc2)ccn1 [Sorafenib] (1000 nM),98.3%,108%,102%,113%,108%,102%,112%,99.3%,106%,96.9%,118%,102%,,81% and 96.6%,96.7% and 105%,76.9% and 89.3%,78.7% and 89.8%,,,,
CCN(CC)CCNC(=O)c1c(C)[nH]c(/C=C2\C(=O)Nc3ccc(F)cc32)c1C [Sunitinib] (1000 nM),94.2%,102%,98.9%,113%,107%,108%,82.6%,86.1%,103%,105%,66.3%,91.7%,88.2% and 77.7%,89.9% and 93.9%,107% and 117%,105% and 107%,112% and 98.6%,,,,
CC[C@@]1(O)C(=O)OCc2c1cc1n(c2=O)Cc2cc3c(CN(C)C)c(O)ccc3nc2-1 [Topotecan] (1000 nM),,,,,,,,,,,,,12.4%,44.6%,13.8%,37.5%,15.6%,77.7%,,,
